In ChEMBL document CHEMBL4477227, “Synthesis and antibacterial evaluation of macrocyclic diarylheptanoid derivatives” (Bioorg Med Chem Lett, 2016):
≈ marks a conversion by molar mass, not a printed value.

Legend:
[1] = system: Mycobacterium tuberculosis; assay: Antitubercular activity against Mycobacterium tuberculosis H37Rv by microbroth dilution method; type: functional
[2] = system: Bacillus anthracis; assay: Antibacterial activity against Bacillus anthracis Sterne 34F2 by microbroth dilution method; type: functional
[3] = system: Enterococcus faecalis; assay: Antibacterial activity against Enterococcus faecalis ATCC 33186 by microbroth dilution method; type: functional
[4] = system: Staphylococcus aureus; assay: Antibacterial activity against methicillin-sensitive Staphylococcus aureus ATCC 29213 by microbroth dilution method; type: functional
[5] = system: Staphylococcus aureus; assay: Antibacterial activity against methicillin-resistant Staphylococcus aureus NRS70 by microbroth dilution method; type: functional
[6] = system: Streptococcus pyogenes; assay: Antibacterial activity against Streptococcus pyogenes ATCC 700294 by microbroth dilution method; type: functional
[7] = system: Streptococcus pneumoniae; assay: Antibacterial activity against Streptococcus pneumoniae R6 by microbroth dilution method; type: functional
[8] = system: Bacillus subtilis; assay: Antibacterial activity against Bacillus subtilis ATCC 23857 by microbroth dilution method; type: functional
[9] = system: Acinetobacter baumannii; assay: Antibacterial activity against Acinetobacter baumannii ATCC 19606 by microbroth dilution method; type: functional, ATCC 19606 = CIP 70.34 = JCM 6841
[10] = system: Escherichia coli; assay: Antibacterial activity against Escherichia coli K-12 by microbroth dilution method; type: functional
[11] = system: Escherichia coli; assay: Antibacterial activity against Escherichia coli harboring TolC deletion mutant by microbroth dilution method; type: functional
[12] = system: Burkholderia cepacia; assay: Antibacterial activity against Burkholderia cepacia ATCC 25416 by microbroth dilution method; type: functional
[13] = system: Klebsiella pneumoniae; assay: Antibacterial activity against Klebsiella pneumoniae ATCC 33495 by microbroth dilution method; type: functional
[14] = system: Proteus mirabilis; assay: Antibacterial activity against Proteus mirabilis ATCC 25933 by microbroth dilution method; type: functional
[15] = system: Proteus vulgaris; assay: Antibacterial activity against Proteus vulgaris ATCC 33420 by microbroth dilution method; type: functional
[16] = system: Pseudomonas aeruginosa; assay: Antibacterial activity against Pseudomonas aeruginosa PAO1 by microbroth dilution method; type: functional
[17] = Mycobacterium tuberculosis, H37Rv, read-out: MIC
[18] = Bacillus anthracis, Sterne 34F2, read-out: MIC
[19] = Enterococcus faecalis, ATCC 33186, read-out: MIC
[20] = Staphylococcus aureus, ATCC 29213, read-out: MIC
[21] = Staphylococcus aureus, NRS70, read-out: MIC
[22] = Streptococcus pyogenes, ATCC 700294, read-out: MIC
[23] = Streptococcus pneumoniae, R6, read-out: MIC
[24] = Bacillus subtilis, ATCC 23857, read-out: MIC
[25] = Acinetobacter baumannii, ATCC 19606 = CIP 70.34 = JCM 6841, read-out: MIC
[26] = Escherichia coli, read-out: MIC

| SMILES | MIC [1, 17] | MIC [2, 18] | MIC [3, 19] | MIC [4, 20] | MIC [5, 21] | MIC [6, 22] | MIC [7, 23] | MIC [8, 24] | MIC [9, 25] | MIC [10] | MIC [11, 26] | MIC [12] | MIC [13] | MIC [14] | MIC [15] | MIC [16] | MIC [11] | also measured |
| --- | --- | --- | --- | --- | --- | --- | --- | --- | --- | --- | --- | --- | --- | --- | --- | --- | --- | --- |
| NNC(=O)c1ccncc1 [ISONIAZID] | 0.03 µg/mL (≈ 0.219 µM) |  |  |  |  |  |  |  |  |  |  |  |  |  |  |  |  |  |
| COc1ccc2cc1Oc1cc(ccc1OC)CCC(NCCc1ccccc1)CCCC2 (stereo not drawn) | 12.5 to 50 µg/mL (≈ 28.1 to 112 µM) |  |  |  |  |  |  |  |  |  |  |  |  |  |  |  |  |  |
| Oc1ccc2cc1Oc1cc(ccc1O)CCC(NCc1ccccc1)CCCC2 (stereo not drawn) | 100 µg/mL (≈ 248 µM) | > 50 µg/mL | > 50 µg/mL | > 50 µg/mL | > 50 µg/mL | > 50 µg/mL | > 50 µg/mL | > 50 µg/mL | > 50 µg/mL | > 50 µg/mL | 50 µg/mL (≈ 124 µM) | > 100 µg/mL | > 100 µg/mL | > 100 µg/mL | > 100 µg/mL | > 100 µg/mL |  |  |
| O=C(N[C@H](CO)[C@H](O)c1ccc([N+](=O)[O-])cc1)C(Cl)Cl [CHLORAMPHENICOL] |  | 3.12 µg/mL (≈ 9.67 µM) |  | 6.25 µg/mL (≈ 19.3 µM) | 3.12 µg/mL (≈ 9.67 µM) | 3.12 µg/mL (≈ 9.67 µM) | 1.56 µg/mL (≈ 4.83 µM) | 6.25 µg/mL (≈ 19.3 µM) | 50 µg/mL (≈ 155 µM) | 6.25 µg/mL (≈ 19.3 µM) | 0.78 µg/mL (≈ 2.41 µM) | > 100 µg/mL | > 100 µg/mL | > 100 µg/mL | > 100 µg/mL | > 100 µg/mL |  |  |
| COc1ccc2cc1Oc1cc(ccc1OC)CCC(OC(=O)NCc1ccccc1)CCCC2 (stereo not drawn) | > 100 µg/mL | > 100 µg/mL | > 100 µg/mL | > 100 µg/mL | > 100 µg/mL | > 100 µg/mL | > 100 µg/mL | > 100 µg/mL | > 100 µg/mL | > 100 µg/mL | > 100 µg/mL | > 100 µg/mL | > 100 µg/mL | > 100 µg/mL | > 100 µg/mL | > 100 µg/mL |  |  |
| COc1ccc2cc1Oc1cc(ccc1OC)CCC(OS(C)(=O)=O)CCCC2 (stereo not drawn) | > 100 µg/mL | > 100 µg/mL | > 100 µg/mL | > 100 µg/mL | > 100 µg/mL | > 100 µg/mL | > 100 µg/mL | > 100 µg/mL | > 100 µg/mL | > 100 µg/mL | > 100 µg/mL | > 100 µg/mL | > 100 µg/mL | > 100 µg/mL | > 100 µg/mL | > 100 µg/mL |  |  |
| COc1ccc2cc1Oc1cc(ccc1OC)CCC(NCc1ccccc1)CCCC2 (stereo not drawn) | 12.5 to 50 µg/mL (≈ 29 to 116 µM) |  |  |  |  |  |  |  |  |  |  |  |  |  |  |  |  |  |
| COc1ccc2cc1Oc1cc(ccc1OC)CCC(N[C@@H]1CCCc3ccccc31)CCCC2 (stereo in doubt; 25) | > 100 µg/mL |  |  | > 100 µg/mL |  |  |  |  |  | > 100 µg/mL |  | > 100 µg/mL | > 100 µg/mL | > 100 µg/mL | > 100 µg/mL | > 100 µg/mL | 100 µg/mL (≈ 212 µM) | MIC [8]: 6.25 µg/mL (≈ 13.3 µM) |
| COc1ccc2cc1Oc1cc(ccc1OC)CCC(N[C@H]1CCCc3ccccc31)CCCC2 (stereo in doubt; 27) |  | > 100 µg/mL | > 100 µg/mL |  | > 100 µg/mL | > 100 µg/mL | > 100 µg/mL | > 100 µg/mL | > 100 µg/mL | > 100 µg/mL |  | > 100 µg/mL | > 100 µg/mL | > 100 µg/mL | > 100 µg/mL | > 100 µg/mL | >100 µg/mL |  |
| CCCCCCNC1CCCCc2ccc(OC)c(c2)Oc2cc(ccc2OC)CC1 (stereo not drawn) | 12.5 to 50 µg/mL (≈ 29.4 to 117 µM) |  |  |  |  |  |  |  |  |  |  |  |  |  |  |  |  |  |
| COc1ccc2cc1Oc1cc(ccc1OC)CCC(N[C@@H]1CCCc3ccccc31)CCCC2 (stereo in doubt; 26) |  |  |  |  |  |  |  |  |  |  |  |  |  |  |  |  | 25 µg/mL (≈ 53 µM) | MIC [1]: 50 µg/mL (≈ 106 µM); MIC [7]: 50 µg/mL (≈ 106 µM); MIC [8]: 25 µg/mL (≈ 53 µM); MIC [9]: >100 µg/mL |
| COc1ccc2cc1Oc1cc(ccc1OC)CCC(N[C@H]1CCCc3ccccc31)CCCC2 (stereo in doubt; 28) |  |  |  |  |  |  |  |  |  |  |  |  |  |  |  |  | 25 µg/mL (≈ 53 µM) | MIC [2]: >100 µg/mL; MIC [3]: >100 µg/mL; MIC [4]: >100 µg/mL; MIC [5]: >100 µg/mL; MIC [6]: >100 µg/mL; MIC [7]: >100 µg/mL; MIC [8]: >100 µg/mL |
